Laboratory results as given in patent US4775692A, “2,5,6,7-tetranor-4,8-inter-m-phenylene PGI2 derivatives” (Toray Industries, Inc., priority 1986, dated 1988).
Converted amounts (≈) assume the structure as drawn. Read-outs that look alike come from different tables or passages of the source.

Legend:
platelet aggregation = experiment: Inhibiting effect of platelet aggregation (ADP-induced, human platelet-rich plasma); format: cell-based; conditions: human PRP, compound added one minute before ADP
Protocol: Inhibiting effect of platelet aggregation
The blood taken from a human median cubital vein was centrifuged at 800 rpm for 10 min. and a supernatant thereof was used as a platelet-rich plasma (PRP). An aliquot of PRP thus obtained was put into a small tube, to which […] (ADP) was added to induce platelet aggregation. The extent of aggregation was determined by detecting a change in turbidity of the aliquot by an apparatus for measuring platelet aggregation (Rika-Denki, Tokyo). The compound was added one minute before the addition of ADP. The concentration of the compound which may reduce the platelet aggregation, 50% of the control was designated as IC50.

gastric acid secretion [1] = experiment: Inhibiting effect of gastric acid secretion, pylorus-ligated rat (Shay); format: in vivo; conditions: pylorus ligation, injected into duodenum, 5 hours
Protocol: (§1) Inhibiting effect of gastric acid secretion
Under anesthesia by ether, the abdomen of the rat was incised in its median and a pylorus was ligated with silk thread according to Shay (Gastroenterology 5, 43 (1945)). Simultaneously, the compound was injected into a duodenum of the rat and then the incision was closed.
Five hours later, the median-incision of the abdomen was again performed and the esophargus was ligated and then the whole stomach was removed.
The stomach was cut along a greater curvature and the contents thereof was transferred into a graduated centrifuge tube. After centrifugation at 3,000 rpm for 10 min., a volume of a gastric juice was measured and a part of its supernatant was titrated to pH 7 with 0.1N NaOH using a pH-stat (Radio meter).
The mean dose of the compounds which may reduce the volume of gastric juice (ml) and acidity (mEq/ml) of a group of five animals to 50% of that of the controls were designated respectively as ED50.

corpus of stomach = experiment: Gastric cytoprotection effect (lesion length / ulcer index after oral 0.2N NaOH); format: in vivo; conditions: 1 h, 30 min before oral 0.2N NaOH, lesion measured one hour later, read-out: Gastric cytoprotection effect ED50 (dose reducing the sore to 50% of control)
Description: Gastric cytoprotection effect
Gastric cytoprotection effect was studied according to the method by A. Robert (Gastroenterology, 77(3), 443, (1979)). Thirty min. after oral administration of the compound according to the invention, 0.2N NaOH was orally applied to the animals.
One hour later, the animals were killed under anesthesia by chloroform. The stomach was removed and fixed in a solution of 5% formalin. After fixation, the stomach was cut along the greater curvature. A total length of the lesion appearing on the corpus of stomach was then measured and served as an ulcer index.
The dose of the compound which may reduce the sore to 50% of that of the control was designated as ED50.
The gastric cytoprotection effects of the compounds according to the invention, which is thus represented by ED50, are summarized in Table 1.

[2] = test system: blood pressure of the carotid; experiment: Hypotensive effect (carotid blood pressure, anesthetized rat); format: in vivo; conditions: chloralose-anesthetized Wistar male rat, injected via catheter connected to femoral artery; read-out: Hypotensive effect ED25 (dose reducing blood pressure by 25 mmHg)
Protocol: A catheter was inserted to a carotid of the Wistar male rat under chloralose anesthesia. Another end of the catheter was connected to a polygraph with a pressure-transducer to detect a blood pressure of the carotid. The compound was injected via catheter connected to a femoral artery. The dose of the compound which may reduce the blood pressure in an amount of 25 mmHg was designated as ED25.

gastric acid secretion [3] = experiment: Inhibiting effect of gastric acid secretion, perfused stomach, pentagastrin-stimulated (Ghosh & Schild); format: in vivo, male SD rat; conditions: urethane-anesthetized SD rat, pentagastrin 0.05 μg/kg/min, injected through femoral vein; ratio of area index to that of PGE2
Protocol: as §1
A male SD rat was incised in the abdomen under anesthesia by urethane and the lumen of a stomach was perfused with a physiolosical saline solution through a double-cannula inserted into a lumen of the stomach. A pH of a draining gastric acid was monitored using a pH-meter (M. Ghosh, H. Schild, Br. J. Pharmacol. 13, 54 (1958)). The secretion of gastric acid was stimulated by a continuous infusion of the pentagastrin at a rate of 0.05 μg/kg/min. When the pH of gastric acid became stable value of about 4, the compound was injected through a femoral vein. As an index of the inhibiting effect of gastric acid secretion by the compound was calculated from the area surrounded by the curve drawn by the time course of the pH of gastric acid, from the point increase by the injection of the compound and to the point it came back to baseline. The index thus obtained was compared to that of PGE2 and a ratio therebetween was shown in Table 3, as a relative effect of the compound.

[4] = acidity (mEq/ml) to 50% of controls, read-out: Inhibiting effect of gastric acid secretion ED50, Acidity
[5] = volume (ml) to 50% of controls, read-out: Inhibiting effect of gastric acid secretion ED50, Volume of the gastric juice

Row | SMILES | IC50 (platelet aggregation) | ED50 (gastric acid secretion [1]; [4]) | ED50 (gastric acid secretion [1]; [5]) | ED50 (corpus of stomach) | ED (25 mmHg) [2] | Inhibiting effect of gastric acid secretion, Relative effect (PGE2 = 1) (gastric acid secretion [3])
1 | O=C(O)COc1cccc2c1O[C@H]1C[C@@H](O)[C@H](/C=C/[C@@H](O)c3cccc(C(F)(F)F)c3)[C@@H]21 (relative stereo) [Compound 278, 15-(m-trifluoromethylphenyl)-2,5,6,7,16,17,18,19,20-nonanor-4-oxa-4,8-inter-m-phenylene PGI2] | 0.79 ng/mL (≈ 1.75 nM) | 1100 µg/kg | 630 µg/kg | 3.1 µg/kg | 0.11 µg/kg | 6.9
2 | O=C(O)COc1cccc2c1O[C@H]1C[C@@H](O)[C@H](/C=C/[C@@H](O)Cc3ccccc3)[C@@H]21 (relative stereo) [Compound 260, 16-phenyl-2,5,6,7,17,18,19,20-octanor-4-oxa-4,8-inter-m-phenylene PGI2] | 3.5 ng/mL (≈ 8.83 nM) | 4500 µg/kg | 5200 µg/kg | 51.4 µg/kg | 0.98 µg/kg | 13
3 | O=C(O)COc1cccc2c1O[C@H]1C[C@@H](O)[C@H](/C=C/[C@@H](O)c3cccc(Cl)c3)[C@@H]21 (relative stereo) [Compound 285, 15-(m-chlorophenyl)-2,5,6,7,16,17,18,19,20-nonanor-4-oxa-4,8-inter-m-phenylene PGI2] | 0.23 ng/mL (≈ 0.552 nM) | 1200 µg/kg | 880 µg/kg | 3.5 µg/kg | 0.055 µg/kg | 4.1
4 | O=C(O)COc1cccc2c1O[C@H]1C[C@@H](O)[C@H](/C=C/[C@@H](O)CC3CCCCC3)[C@@H]21 (relative stereo) [Compound 241, 16-cyclohexyl-2,5,6,7,17,18,19,20-octanor-4-oxa-4,8-inter-m-phenylene PGI2] | 12 ng/mL (≈ 29.8 nM) | 2800 µg/kg | 1800 µg/kg | 8.17 µg/kg | 0.083 µg/kg | 2.1
5 | O=C(O)COc1cccc2c1O[C@H]1C[C@@H](O)[C@H](/C=C/[C@@H](O)c3cccc(F)c3)[C@@H]21 (relative stereo) [Compound 274, 15-(m-fluorophenyl)-2,5,6,7,16,17,18,19,20-nonanor-4-oxa-4,8-inter-m-phenylene PGI2] | 1.35 ng/mL (≈ 3.37 nM) | 880 µg/kg | 260 µg/kg | 9.6 µg/kg | 0.053 µg/kg | 12
6 | O=C(O)COc1cccc2c1O[C@H]1C[C@@H](O)[C@H](/C=C/[C@@H](O)CCC3CCCCC3)[C@@H]21 (relative stereo) [Compound 244, 17-cyclohexyl-2,5,6,7,18,19,20-heptanor-4-oxa-4,8-inter-m-phenylene PGI2] | 28 ng/mL (≈ 67.2 nM) | > 10000 µg/kg | 3500 µg/kg | 8.52 µg/kg | 0.47 µg/kg | 3.9
7 | CC#CCC(C)[C@H](O)/C=C/[C@@H]1[C@H]2c3cccc(OCC(=O)O)c3O[C@H]2C[C@H]1O (relative stereo) [Compound 321, 16-Methyl-2,5,6,7-tetranor-4-oxa-18,18,19,19-tetradehydro-4,8-inter-m-phenylene PGI2] | 0.33 ng/mL (≈ 0.854 nM) | 320 µg/kg | 120 µg/kg | 0.5 µg/kg | 0.22 µg/kg | 41
8 | O=C(O)COc1cccc2c1O[C@H]1C[C@@H](O)[C@H](/C=C/[C@@H](O)C3CCCCC3)[C@@H]21 (relative stereo) [Compound 234, 15-cyclohexyl-2,5,6,7,16,17,18,19,20-nonanor-4-oxa-4,8-inter-m-phenylene PGI2] | 0.26 ng/mL (≈ 0.669 nM) | 880 µg/kg | 86 µg/kg | 12.4 µg/kg | 0.34 µg/kg | 4.1
9 | CCCCCCC(C)(C)[C@H](O)/C=C/[C@@H]1[C@H]2c3cccc(OCC(=O)O)c3O[C@H]2C[C@H]1O (relative stereo) [Compound 188, 16,16-Dimethyl-20a,20b-dihomo-2,5,6,7-tetranor-4-oxa-4,8-inter-m-phenylene PGI2] | 6.9 ng/mL (≈ 16 nM) |  |  | 2.8 µg/kg | 1.5 µg/kg | 23
10 | CC(C)(C)[C@H](O)/C=C/[C@@H]1[C@H]2c3cccc(OCC(=O)O)c3O[C@H]2C[C@H]1O (relative stereo) [Compound 168, 16,16-Dimethyl-2,5,6,7,18,19,20-heptanor-4-oxa-4,8-inter-m-phenylene PGI2] | 1.54 ng/mL (≈ 4.25 nM) |  |  | 30.5 µg/kg | 0.49 µg/kg | 3.5
11 | CCCCCCCC(C)(C)[C@H](O)/C=C/[C@@H]1[C@H]2c3cccc(OCC(=O)O)c3O[C@H]2C[C@H]1O (relative stereo) [Compound 192, 16,16-Dimethyl-20a,20b,20c-trihomo-2,5,6,7-tetranor-4-oxa-4,8-inter-m-phenylene PGI2] | 8 ng/mL (≈ 17.9 nM) |  |  | 3.9 µg/kg | 0.59 µg/kg | 0.7
12 | O=C(O)COc1cccc2c1O[C@H]1C[C@@H](O)[C@H](/C=C/[C@@H](O)CC3CCCC3)[C@@H]21 (relative stereo) [Compound 238, 16-cyclopentyl-2,5,6,7,17,18,19,20-octanor-4-oxa-4,8-inter-m-phenylene PGI2] | 0.24 ng/mL (≈ 0.618 nM) |  |  | 4.9 µg/kg | 0.14 µg/kg | 11
13 | CCCC(C)(C)C[C@H](O)/C=C/[C@@H]1[C@H]2c3cccc(OCC(=O)O)c3O[C@H]2C[C@H]1O (relative stereo) [Compound 200, 17,17-Dimethyl-2,5,6,7-tetranor-4-oxa-4,8-inter-m-phenylene PGI2] | 0.37 ng/mL (≈ 0.915 nM) |  |  | 3.6 µg/kg | 0.16 µg/kg | 3.0
14 | CCCCCC(C)(C)[C@H](O)/C=C/[C@@H]1[C@H]2c3cccc(OCC(=O)O)c3O[C@H]2C[C@H]1O (relative stereo) [Compound 184, 16,16-Dimethyl-20a-homo-2,5,6,7-tetranor-4-oxa-4,8-inter-m-phenylene PGI2] | 24 ng/mL (≈ 57.3 nM) |  |  | 2.3 µg/kg | 0.5 µg/kg | 85
15 | CCOCC(C)(C)[C@H](O)/C=C/[C@@H]1[C@H]2c3cccc(OCC(=O)O)c3O[C@H]2C[C@H]1O (relative stereo) [Compound 305, 16,16-Dimethyl-2,5,6,7-tetranor-4,18-dioxa-4,8-inter-m-phenylene PGI2] | 90 ng/mL (≈ 221 nM) |  |  | 13.1 µg/kg | 0.55 µg/kg | 99
16 | Cc1ccc([C@H](O)/C=C/[C@@H]2[C@H]3c4cccc(OCC(=O)O)c4O[C@H]3C[C@H]2O)cc1 (relative stereo) [Compound 270, 15-(p-methylphenyl)-2,5,6,7,16,17,18,19,20-nonanor-4-oxa-4,8-inter-m-phenylene PGI2] | 1.6 ng/mL (≈ 4.04 nM) |  |  | 25.5 µg/kg | 0.12 µg/kg | 16
